Data published in the NIST ThermoML archive (doi:10.1016/j.jct.2017.05.001).
Numbers after ± are expanded uncertainties.

Test: wn = mass fraction of the nth substance listed
Details: Liquid; for mass density: Vibrating tube method

CN(C)CCO [2-(N,N-dimethylamino)ethanol] + O
viscosity [mPa·s]
Details	293.15 K	313.15 K
100 kPa, Concentric cylinders viscometry, w1 = 0.1	1.587 ± 0.033	0.947 ± 0.02
100 kPa, Concentric cylinders viscometry, w1 = 0.2	2.614 ± 0.054	1.408 ± 0.029
100 kPa, Concentric cylinders viscometry, w1 = 0.3	4.334 ± 0.088	2.102 ± 0.043
100 kPa, Concentric cylinders viscometry, w1 = 0.4	6.754 ± 0.14	3.068 ± 0.063
100 kPa, Falling or rolling sphere viscometry, w1 = 0.1005	1.559 ± 0.051	0.9401 ± 0.031
100 kPa, Falling or rolling sphere viscometry, w1 = 0.202	2.533 ± 0.083	1.368 ± 0.045
100 kPa, Falling or rolling sphere viscometry, w1 = 0.3005	4.211 ± 0.14	2.042 ± 0.067
100 kPa, Falling or rolling sphere viscometry, w1 = 0.3995	6.587 ± 0.22	2.99 ± 0.098
5000 kPa, Falling or rolling sphere viscometry, w1 = 0.1005	1.564 ± 0.051	0.9415 ± 0.031
5000 kPa, Falling or rolling sphere viscometry, w1 = 0.202	2.547 ± 0.084	1.374 ± 0.045
5000 kPa, Falling or rolling sphere viscometry, w1 = 0.3005	4.223 ± 0.14	2.063 ± 0.068
5000 kPa, Falling or rolling sphere viscometry, w1 = 0.3995	6.535 ± 0.21	3.031 ± 0.1
10000 kPa, Falling or rolling sphere viscometry, w1 = 0.1005	1.564 ± 0.051	0.9437 ± 0.031
10000 kPa, Falling or rolling sphere viscometry, w1 = 0.202	2.557 ± 0.084	1.382 ± 0.045
10000 kPa, Falling or rolling sphere viscometry, w1 = 0.3005	4.258 ± 0.14	2.083 ± 0.068
10000 kPa, Falling or rolling sphere viscometry, w1 = 0.3995	6.564 ± 0.22	3.075 ± 0.1
15000 kPa, Falling or rolling sphere viscometry, w1 = 0.1005	1.563 ± 0.051	0.9453 ± 0.031
15000 kPa, Falling or rolling sphere viscometry, w1 = 0.202	2.566 ± 0.084	1.392 ± 0.046
15000 kPa, Falling or rolling sphere viscometry, w1 = 0.3005	4.295 ± 0.14	2.103 ± 0.069
15000 kPa, Falling or rolling sphere viscometry, w1 = 0.3995	6.801 ± 0.22	3.121 ± 0.1
20000 kPa, Falling or rolling sphere viscometry, w1 = 0.1005	1.562 ± 0.051	0.9476 ± 0.031
20000 kPa, Falling or rolling sphere viscometry, w1 = 0.202	2.574 ± 0.084	1.395 ± 0.046
20000 kPa, Falling or rolling sphere viscometry, w1 = 0.3005	4.33 ± 0.14	2.121 ± 0.07
20000 kPa, Falling or rolling sphere viscometry, w1 = 0.3995	6.863 ± 0.23	3.164 ± 0.1
25000 kPa, Falling or rolling sphere viscometry, w1 = 0.1005	1.561 ± 0.051	0.9506 ± 0.031
25000 kPa, Falling or rolling sphere viscometry, w1 = 0.202	2.583 ± 0.085	1.4 ± 0.046
25000 kPa, Falling or rolling sphere viscometry, w1 = 0.3005	4.374 ± 0.14	2.142 ± 0.07
25000 kPa, Falling or rolling sphere viscometry, w1 = 0.3995	6.822 ± 0.22	3.209 ± 0.11
30000 kPa, Falling or rolling sphere viscometry, w1 = 0.1005	1.564 ± 0.051	0.9525 ± 0.031
30000 kPa, Falling or rolling sphere viscometry, w1 = 0.202	2.589 ± 0.085	–
30000 kPa, Falling or rolling sphere viscometry, w1 = 0.3005	4.405 ± 0.14	–
30000 kPa, Falling or rolling sphere viscometry, w1 = 0.3995	7.027 ± 0.23	–
40000 kPa, Falling or rolling sphere viscometry, w1 = 0.1005	1.564 ± 0.051	–
40000 kPa, Falling or rolling sphere viscometry, w1 = 0.202	2.605 ± 0.086	–
40000 kPa, Falling or rolling sphere viscometry, w1 = 0.3005	4.464 ± 0.15	–
40000 kPa, Falling or rolling sphere viscometry, w1 = 0.3995	6.883 ± 0.23	–
60000 kPa, Falling or rolling sphere viscometry, w1 = 0.1005	1.562 ± 0.051	–
60000 kPa, Falling or rolling sphere viscometry, w1 = 0.202	2.637 ± 0.087	–
60000 kPa, Falling or rolling sphere viscometry, w1 = 0.3005	4.588 ± 0.15	–
60000 kPa, Falling or rolling sphere viscometry, w1 = 0.3995	7.591 ± 0.25	–
80000 kPa, Falling or rolling sphere viscometry, w1 = 0.1005	1.57 ± 0.052	–
80000 kPa, Falling or rolling sphere viscometry, w1 = 0.202	2.672 ± 0.088	–
80000 kPa, Falling or rolling sphere viscometry, w1 = 0.3005	4.73 ± 0.16	–
100000 kPa, Falling or rolling sphere viscometry, w1 = 0.1005	1.577 ± 0.052	–
100000 kPa, Falling or rolling sphere viscometry, w1 = 0.202	2.706 ± 0.089	–
100000 kPa, Falling or rolling sphere viscometry, w1 = 0.3005	4.861 ± 0.16	–

mass density [kg/m3]
Details	w1 = 0.1005	w1 = 0.202	w1 = 0.3005	w1 = 0.3995
293.15 K, 100 kPa	994.5 ± 0.7	992.6 ± 0.7	990.6 ± 0.7	986.6 ± 0.7
293.15 K, 500 kPa	994.7 ± 0.7	992.7 ± 0.7	990.7 ± 0.7	986.7 ± 0.7
293.15 K, 1000 kPa	994.8 ± 0.7	992.9 ± 0.7	990.9 ± 0.7	986.9 ± 0.7
293.15 K, 2000 kPa	995.3 ± 0.7	993.3 ± 0.7	991.3 ± 0.7	987.3 ± 0.7
293.15 K, 5000 kPa	996.5 ± 0.7	994.4 ± 0.7	992.4 ± 0.7	988.4 ± 0.7
293.15 K, 10000 kPa	998.5 ± 0.7	996.3 ± 0.7	994.2 ± 0.7	990.3 ± 0.7
293.15 K, 15000 kPa	1000.5 ± 0.7	998.2 ± 0.7	996 ± 0.7	992.1 ± 0.7
293.15 K, 20000 kPa	1002.6 ± 0.7	1000 ± 0.7	997.8 ± 0.7	994 ± 0.7
293.15 K, 30000 kPa	1006.6 ± 0.7	1003.7 ± 0.7	1001.4 ± 0.7	997.5 ± 0.7
293.15 K, 40000 kPa	1010.5 ± 0.7	1007.4 ± 0.7	1004.9 ± 0.7	1001 ± 0.7
293.15 K, 50000 kPa	1014.3 ± 0.7	1010.8 ± 0.7	1008.2 ± 0.7	1004.4 ± 0.7
293.15 K, 60000 kPa	1018.1 ± 0.7	1014.3 ± 0.7	1011.6 ± 0.7	1007.7 ± 0.7
293.15 K, 70000 kPa	1021.8 ± 0.7	1017.9 ± 0.7	1014.9 ± 0.7	1011 ± 0.7
293.15 K, 80000 kPa	1025.3 ± 0.7	1021.1 ± 0.7	1018 ± 0.7	1014.1 ± 0.7
293.15 K, 90000 kPa	1029 ± 0.7	1024.4 ± 0.7	1021.2 ± 0.7	1017.3 ± 0.7
293.15 K, 100000 kPa	1032.5 ± 0.7	1027.7 ± 0.7	1024.3 ± 0.7	1020.4 ± 0.7
293.15 K, 110000 kPa	1035.9 ± 0.7	1030.8 ± 0.7	1027.2 ± 0.7	1023.2 ± 0.7
293.15 K, 120000 kPa	1039.3 ± 0.7	1033.9 ± 0.7	1030.2 ± 0.7	1026.3 ± 0.7
293.15 K, 130000 kPa	1042.7 ± 0.7	1037.2 ± 0.7	1033.3 ± 0.7	1029.2 ± 0.7
293.15 K, 140000 kPa	1045.7 ± 0.8	1040.1 ± 0.7	1036 ± 0.7	1031.9 ± 0.7
313.15 K, 100 kPa	987.4 ± 0.7	983.2 ± 0.7	978.8 ± 0.7	972.7 ± 0.7
313.15 K, 500 kPa	987.6 ± 0.7	983.4 ± 0.7	979 ± 0.7	972.9 ± 0.7
313.15 K, 1000 kPa	987.8 ± 0.7	983.6 ± 0.7	979.2 ± 0.7	973.1 ± 0.7
313.15 K, 2000 kPa	988.3 ± 0.7	984 ± 0.7	979.6 ± 0.7	973.5 ± 0.7
313.15 K, 5000 kPa	989.5 ± 0.7	985.2 ± 0.7	980.8 ± 0.7	974.7 ± 0.7
313.15 K, 10000 kPa	991.5 ± 0.7	987.2 ± 0.7	982.7 ± 0.7	976.7 ± 0.7
313.15 K, 15000 kPa	993.4 ± 0.7	989.1 ± 0.7	984.6 ± 0.7	978.6 ± 0.7
313.15 K, 20000 kPa	995.4 ± 0.7	990.9 ± 0.7	986.5 ± 0.7	980.6 ± 0.7
